Experimental data reported in patent US20260240958A1, “REPRESSOR FUSION PROTEIN SYSTEMS” (Scribe Therapeutics Inc., priority 2023, published 2026).

Legend:
B2M gene = test: B2M reactivation by DNMT1 inhibitor 5-azadC in transfected HEK293T cells cultured for 58 days; assay type: cell-based, human; conditions: HEK293T transfected with construct + B2M-targeting gRNA; 0 to 20 μM 5-azadC
Text: LTRP configuration 5 containing the ZIM3-KRAB domain, which was generated as described in Example 1, and CasX variant 491 were used in this experiment. A B2M-targeting gRNA with scaffold 174 containing spacer 7.37 (SEQ ID NO: 1904) or a non-targeting gRNA containing spacer 0.0 (SEQ ID NO: 1906) were used in this experiment.

human PCSK9 locus [1] = test: Secreted PCSK9 dose response (IC50, IC90, Emax) in primary human hepatocytes treated with LNPs; assay type: cell-based; conditions: day 5
Description: PCSK9 knockdown in primary human hepatocytes, provided an experimental basis for lipofection of gRNA comprising one of the four top editing targeting sequences (Table 59) into PHH cells for assessment of PCSK9 secretion and mRNA reduction. Dose response curves were generated from two lots of PHH cells with three rounds of triplicate wells for each condition. The highest tested dose, 2400 ng/well total encapsulated RNA, was used to measure mRNA expression changes between treated and naïve cells via RNA-seq.
Two lots (lot #271 and lot #31) of primary human hepatocytes (Lonza Biologics) were plated at density of 65K cells/well. Twenty-four hours later, plates were stamped with the indicated total encapsulated RNA dose of single formulations ALC-0315 LNP (1:1 ratio, pre-incubated with human serum overnight) at the indicated dose in triplicate wells for each condition. Doses tested for each mRNA:gRNA pair (Table 60) were 2400, 800, 270, 90, 30, 10, 0.1, and 0.01 ng/well total encapsulated RNA. […]
Secreted PCSK9 levels in the media supernatant were analyzed using the BioLegend® ELISA MAX™ kit following the manufacturer's instructions.
(§1) The ability of pairs of mRNA:gRNA comprising scaffold 316 and an PCSK9-targeting sequence to reduce secretion of PCSK9 and PCSK9 mRNA reduction was assessed. […]

PCSK9 mRNA = PCSK9 mRNA RT-qPCR dose response (IC50, IC90, Emax) in primary human hepatocytes treated with LNPs; assay type: cell-based; conditions: day 5
Description: Two lots (lot #271 and lot #31) of primary human hepatocytes (Lonza Biologics) were plated at density of 65K cells/well. Twenty-four hours later, plates were stamped with the indicated total encapsulated RNA dose of single formulations ALC-0315 LNP (1:1 ratio, pre-incubated with human serum overnight) at the indicated dose in triplicate wells for each condition. Doses tested for each mRNA:gRNA pair (Table 60) were 2400, 800, 270, 90, 30, 10, 0.1, and 0.01 ng/well total encapsulated RNA.
For rounds 1 and 2, cells were immediately lysed in 100 uL DNA RNA shield™ and stored at […] after the day 5 media collection.
Extracted mRNA was processed and analyzed by RT-qPCR. Measurement ofPCSK9 mRNA expression is performed using a single-step RT-qPCR approach. 50 uL lysate was used to extract total RNA using Zymo 96 RNA extraction kits. Total RNA was then reverse transcribed into cDNA and PCSK9 transcript quantified in reference to a GAPDH endogenous control by quantitative PCR using TaqMan probes. Percent change in mRNA was calculated by comparing to samples treated with a non-targeting sequence.
as §1

human PCSK9 locus [2] = test: Secreted PCSK9 ELISA in Huh7 cells transfected with mRNA and gRNA; assay type: cell-based; conditions: for normalized secreted PCSK9 level: days 6, 18, 36
Description: The following three human hepatocyte cancer cell lines were used in this experiment: HepG2 cells, Hep3B cells, and Huh7 cells. ~15,000 cells of each cell line were seeded in each well of a 96-well plate. The next day, seeded cells were transfected with mRNA encoding a catalytically-active CasX 676, dXR1, or LTRP5-ADD-ZIM3 and a gRNA with scaffold 316 and spacer targeting either the B2M or PCSK9 locus (see Table 12 for specific spacers and sequences). Media supernatant was harvested at 4 days post-transfection to assess level of PCSK9 secretion by ELISA, and levels of PCSK9 secretion were normalized to total cell count, as illustrated in FIGS. 2A-2C. Culturing of treated Huh7 cells continued, and media supernatant was harvested at 14 and 27 days post-transfection for measuring PCSK9 secretion by ELISA. As an additional experimental control, PCSK9 secretion was also measured in the media supernatant harvested from wells containing untreated, naïve cells.
To assess PCSK9 secretion, seeded Huh7 cells were transfected with mRNA encoding a catalytically-active CasX 676, dXR1, or LTRP5-ADD-ZIM3 and a gRNA with scaffold 316 and a spacer targeting either the B2M or PCSK9 locus. Media supernatant was harvested at 6, 18, and 36 days post-transfection to assess level of PCSK9 secretion by ELISA. Levels of PCSK9 secretion were normalized to total cell count. As an additional control, PCSK9 secretion was also measured in the media supernatant harvested from wells containing untreated, naïve cells.

mouse PCSK9 locus = test: Intracellular PCSK9 staining by flow cytometry in Hepa1-6 cells lipofected with mRNA and PCSK9-targeting gRNA; assay type: cell-based
Description: Transfection of mRNA and gRNA into Hepa1-6 cells and intracellular PCSK9 staining were performed as described in Example 6. Briefly, each well of seeded Hepa1-6 cells was transfected with 300 ng of mRNA encoding LTRP5-ZIM3 or LTRP5-ADD-ZIM3 and 150 ng of PCSK9-targeting gRNA with spacer 27.88 or 27.94. Intracellular levels of PCSK9 protein were measured at various timepoints, up to day 53 post-transfection using an intracellular staining protocol as described earlier in Example 6. A non-targeting gRNA was used as an experimental control.
Seeded Hepa1-6 cells treated with the NATE™ inhibitor were lipofected with 300 ng of mRNA encoding dXR1 or LTRP1-ZIM3 (Table 36) and 150 ng of a PCSK9-targeting gRNA (Table 37). Seven different gRNAs with spacers spanning the promoter region of the mouse PCSK9 locus were tested, in addition to a sequence complementary to the human PCSK9 gene that served as the non-targeting control (Table 37). Cells were harvested at 6, 13, and 25 days after transfection to measure intracellular levels of the PCSK9 protein using an intracellular flow cytometry staining protocol. Briefly, cells were fixed using 4% paraformaldehyde in PBS, permeabilized, and stained using a mouse anti-PCSK9 primary antibody (R&D Systems), followed by a fluorescent goat anti-mouse IgG secondary antibody (Thermo Fisher). Fluorescence levels were measured using the Attune™ NxT flow cytometer, and data were analyzed using the FlowJo™ software. Cell populations were gated using the non-targeting gRNA as a negative control.
Seeded Hepa1-6 cells treated with the NATE™ inhibitor were lipofected with 300 ng of mRNA encoding LTRP1-ZIM3, LTRP5-ZIM3, catalytically-active CasX 491, or dCas9-ZNF10-DNMT3A/3L, and 150 ng of PCSK9-targeting gRNA (Table 37). Intracellular levels of PCSK9 protein were measured at day 7, 14, 21, 36, and 71 days post-transfection using an intracellular staining protocol as described for experiment #1.

How did the “reactivation of the B2M gene upon 5-azadC treatment” value (B2M gene) turn out when `Nc1ncn([C@H]2C[C@H](O)[C@@H](CO)O2)c(=O)n1` [5-azadC, 5-aza-2′-deoxycytidine] was run?
Its value is “resulted in a reactivation of the B2Mgene”.

With “TG-06-154: NHP-conserved TSS-proximal TTC spacer targeting the human PCSK9 locus (Table 40) (guide AGGGUGUGGGUGCUUGACGC; spacer within gRNA, v1 profile: 2'-OMe and phosphorothioate on first and last three gRNA nucleotides, further chemistry not given here)” as the compound, how does the “potency in reducing secreted PCSK9 protein” value (human PCSK9 locus [1]) read?
The value was “the most potent LTRP spacer”.

What about the “potency in reducing PCSK9 mRNA levels” value (PCSK9 mRNA) of the same compound?
Its value is “the most potent LTRP spacer”.

“TG-06-352: spacer targeting human PCSK9, positioned beyond the 1100 bp threshold window (guide UCCCUCACCAAUUACCCCUC; spacer within gRNA, v1 profile: 2'-OMe and phosphorothioate on first and last three gRNA nucleotides, further chemistry not given here)” was tested. Which “normalized secreted PCSK9 level” value (human PCSK9 locus [2]; Huh7, spacer paired with LTRP5-ADD-ZIM3, compared with spacer 6.1 paired with CasX 676 and controls) did it give?
Its value is “effective repression”.

Which results are given for “dXR1: dCasX fused to ZIM3-KRAB; protein SEQ ID NO 2008”?
repression of PCSK9 secretion relative to naïve control at day 4 (human PCSK9 locus [2]; Huh7, spacer 6.138, days 4, 14, 27): initial strong repression at day 4, this repressive effect was transient; normalized secreted PCSK9 level (human PCSK9 locus [2]; Huh7, spacer 6.138): transient repression; knockdown of PCSK9 secretion (normalized to total cell count) (human PCSK9 locus [2]; Huh7 compared with HepG2 and Hep3B cells, 4 days post-transfection): most efficient knockdown of PCSK9 secretion; degree of PCSK9 repression compared with LTRP1-ZIM3 (mouse PCSK9 locus; day 6, e.g. spacers 27.92 and 27.100): the degree of repression was less substantial when paired with certain spacers; persistence of PCSK9 repression (mouse PCSK9 locus; days 6, 13, 25): transient repression

For “spacer 27.94: gRNA spacer targeting the mouse PCSK9 locus, SEQ ID NO 2014 (guide CCCCUCUUAAUCCCCACUCC; listed as RNA, chemistry not given here)”, which “durability of PCSK9 repression” value (mouse PCSK9 locus; paired with LTRP5-ZIM3 or LTRP5-ADD-ZIM3 mRNA, day 53) is on record?
The value was “more durable repression than use of spacer 27.88”.
